# Results from US20160297833A1, “THIENOPYRIMIDINES AS MKNK1 AND MKNK2 INHIBITORS” (BAYER PHARMA AKTIENGESELLSCHAFT, priority 2013, published 2016).
# Target: T1, human full-length MKNK1 (Homo sapiens, UniProt Q9BUB5, T385D)
# T1 construct: GST (N); purchased Carna Biosciences 02-145; host or cells: insect cells (baculovirus expression system)
# Experiment: MKNK1 kinase high ATP assay (TR-FRET)
# Type: biochemical
# Settings: Table 1; MKNK1 kinase high ATP assay, 2 mM ATP; read-out: MKNK1 IC50
# Outline: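 Full-length human MKNK1 (T385D) preincubated 15 min at 22 °C with compound in HEPES pH 7.5/MgCl2/DTT buffer; reaction with 2 mM ATP (final) and 0.06 μM biotinylated peptide (final), 30 min at 22 °C.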
# T1 sequence (Q9BUB5 1-424 isoform Q9BUB5-2 T344D): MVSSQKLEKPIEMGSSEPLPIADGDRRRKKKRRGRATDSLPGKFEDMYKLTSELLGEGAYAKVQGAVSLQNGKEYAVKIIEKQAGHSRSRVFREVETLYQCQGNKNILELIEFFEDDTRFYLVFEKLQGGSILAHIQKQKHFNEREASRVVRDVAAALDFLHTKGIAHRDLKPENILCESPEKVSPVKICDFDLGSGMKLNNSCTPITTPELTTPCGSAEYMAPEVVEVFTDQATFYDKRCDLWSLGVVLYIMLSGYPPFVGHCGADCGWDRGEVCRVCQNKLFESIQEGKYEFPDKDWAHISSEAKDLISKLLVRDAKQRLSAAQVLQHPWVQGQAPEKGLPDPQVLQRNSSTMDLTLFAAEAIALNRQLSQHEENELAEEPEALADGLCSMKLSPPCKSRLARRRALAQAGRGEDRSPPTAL
row,IC50 [nM],Compound
1,17.1,"CN(C)CCCOc1cc2[nH]ncc2cc1Nc1ncnc2sc3c(c12)CC[C@H](C(=O)N(C)C)C3 [Example 203, (7S)-4-({6-[3-(Dimethylamino)propoxy]-1H-indazol-5-yl}amino)-N,N-dimethyl-5,6,7,8-tetrahydro[1]benzothieno[2,3-d]pyrimidine-7-carboxamide]"
2,0.2,"COc1cc2[nH]ncc2cc1Nc1ncnc2sc3c(c12)CC[C@H](C(=O)N(C)OC)C3 [Example 198, (7S)—N-Methoxy-4-[(6-methoxy-1H-indazol-5-yl)amino]-N-methyl-5,6,7,8-tetrahydro[1]benzothieno[2,3-d]pyrimidine-7-carboxamide]"
3,8.7,"C[C@H]1CN(C(=O)[C@H]2CCc3c(sc4ncnc(Nc5cc6cn[nH]c6cc5F)c34)C2)C[C@H](C)O1 [Example 225, [(2S,6S)-2,6-Dimethylmorpholin-4-yl]{(7S)-4-[(6-fluoro-1H-indazol-5-yl)amino]-5,6,7,8-tetrahydro[1]benzothieno[2,3-d]pyrimidin-7-yl}methanone]"
4,0.7,"COc1cc2[nH]ncc2cc1Nc1ncnc2sc3c(c12)CC[C@H](C(=O)N1CC(C#N)C1)C3 [Example 35, 1-({(7S)-4-[(6-Methoxy-1H-indazol-5-yl)amino]-5,6,7,8-tetrahydro[1]benzothieno[2,3-d]pyrimidin-7-yl}carbonyl)azetidine-3-carbonitrile]"
5,0.3,"CCOc1cc2[nH]ncc2cc1Nc1ncnc2sc3c(c12)CC[C@H](C(=O)N1CCCC1)C3 [Example 67, {(7S)-4-[(6-Ethoxy-1H-indazol-5-yl)amino]-5,6,7,8-tetrahydro[1]benzothieno[2,3-d]pyrimidin-7-yl}(pyrrolidin-1-yl)methanone]"
6,0.3,"CCN(CCN(C)C)C(=O)[C@H]1CCc2c(sc3ncnc(Nc4cc5cn[nH]c5cc4OC)c23)C1 [Example 53, (7S)—N-[2-(Dimethylamino)ethyl]-N-ethyl-4-[(6-methoxy-1H-indazol-5-yl)amino]-5,6,7,8-tetrahydro[1]benzothieno[2,3-d]pyrimidine-7-carboxamide]"
7,0.4,"CCOc1cc2[nH]ncc2cc1Nc1ncnc2sc3c(c12)CC[C@H](C(=O)N(C)CCC(F)(F)F)C3 [Example 66, (7S)-4-[(6-Ethoxy-1H-indazol-5-yl)amino]-N-methyl-N-(3,3,3-trifluoropropyl)-5,6,7,8-tetrahydro[1]benzothieno[2,3-d]pyrimidine-7-carboxamide]"
8,1.2,"CCON(C)C(=O)[C@H]1CCc2c(sc3ncnc(Nc4cc5cn[nH]c5cc4OC)c23)C1 [Example 214, (7S)—N-Ethoxy-4-[(6-methoxy-1H-indazol-5-yl)amino]-N-methyl-5,6,7,8-tetrahydro[1]benzothieno[2,3-d]pyrimidine-7-carboxamide]"
9,4.2,"C[C@@H]1COCCN1C(=O)[C@H]1CCc2c(sc3ncnc(Nc4cc5cn[nH]c5cc4O[C@@H](C)CN)c23)C1 [Example 148, {(7S)-4-[(6-{[(2S)-1-Aminopropan-2-yl]oxy}-1H-indazol-5-yl)amino]-5,6,7,8-tetrahydro[1]benzothieno[2,3-d]pyrimidin-7-yl}[(3R)-3-methylmorpholin-4-yl]methanone]"
10,1,"CN(C)C(=O)[C@H]1CCc2c(sc3ncnc(Nc4cc5cn[nH]c5cc4O[C@H]4CCOC4)c23)C1 [Example 280, (7S)—N,N-Dimethyl-4-({6-[(3S)-tetrahydrofuran-3-yloxy]-1H-indazol-5-yl}amino)-5,6,7,8-tetrahydro[1]benzothieno[2,3-d]pyrimidine-7-carboxamide]"
11,0.1,"COc1cc2[nH]ncc2cc1Nc1ncnc2sc3c(c12)CC[C@H](C(=O)N1CCC(N(C)C)CC1)C3 [Example 46, [4-(Dimethylamino)piperidin-1-yl]{(7S)-4-[(6-methoxy-1H-indazol-5-yl)amino]-5,6,7,8-tetrahydro[1]benzothieno[2,3-d]pyrimidin-7-yl}methanone]"
12,5.3,"CSc1cc2[nH]ncc2cc1Nc1ncnc2sc3c(c12)CC[C@H](C(=O)N1C[C@H](C)O[C@@H](C)C1)C3 [Example 246, [(2S,6S)-2,6-Dimethylmorpholin-4-yl][(7S)-4-{[6-(methylsulfanyl)-1H-indazol-5-yl]amino}-5,6,7,8-tetrahydro[1]benzothieno[2,3-d]pyrimidin-7-yl]methanone]"
13,0.2,"COc1cc2[nH]ncc2cc1Nc1ncnc2sc3c(c12)CC[C@H](C(=O)N1C[C@@H](C)O[C@H](C)C1)C3 [Example 211, [(2R,6R)-2,6-Dimethylmorpholin-4-yl]{(7S)-4-[(6-methoxy-1H-indazol-5-yl)amino]-5,6,7,8-tetrahydro[1]benzothieno[2,3-d]pyrimidin-7-yl}methanone]"
14,0.6,"CN(C)C(=O)[C@H]1CCc2c(sc3ncnc(Nc4cc5cn[nH]c5cc4OCCN)c23)C1 [Example 108, (7S)-4-{[6-(2-Aminoethoxy)-1H-indazol-5-yl]amino}-N,N-dimethyl-5,6,7,8-tetrahydro[1]benzothieno[2,3-d]pyrimidine-7-carboxamide]"
15,1,"COc1cc2[nH]ncc2cc1Nc1ncnc2sc3c(c12)CC[C@H](C(=O)N1CC2(COC2)C1)C3 [Example 32, {(7S)-4-[(6-Methoxy-1H-indazol-5-yl)amino]-5,6,7,8-tetrahydro[1]benzothieno[2,3-d]pyrimidin-7-yl}(2-oxa-6-azaspiro[3.3]hept-6-yl)methanone]"
16,0.7,"COC[C@@H](C)N(C)C(=O)[C@H]1CCc2c(sc3ncnc(Nc4cc5cn[nH]c5cc4OC)c23)C1 [Example 284, (7S)-4-[(6-Methoxy-1H-indazol-5-yl)amino]-N-[(2R)-1-methoxypropan-2-yl]-N-methyl-5,6,7,8-tetrahydro[1]benzothieno[2,3-d]pyrimidine-7-carboxamide]"
17,0.6,"CC(C)Oc1cc2[nH]ncc2cc1Nc1ncnc2sc3c(c12)CC[C@H](C(=O)N(C)CCO)C3 [Example 90, (7S)—N-(2-Hydroxyethyl)-N-methyl-4-{[6-(propan-2-yloxy)-1H-indazol-5-yl]amino}-5,6,7,8-tetrahydro[1]benzothieno[2,3-d]pyrimidine-7-carboxamide]"
18,21.4,"COc1cc2[nH]ncc2cc1Nc1ncnc2sc3c(c12)CC[C@@H](C(=O)N1CCC1)C3 [Example 22, Azetidin-1-yl{(7R)-4-[(6-methoxy-1H-indazol-5-yl)amino]-5,6,7,8-tetrahydro[1]benzothieno[2,3-d]pyrimidin-7-yl}methanone]"
19,24,"C[C@@H]1COCCN1C(=O)[C@H]1CCc2c(sc3ncnc(Nc4cc5cn[nH]c5cc4N4CCC(N(C)C)CC4)c23)C1 [Example 136, [(7S)-4-({6-[4-(Dimethylamino)piperidin-1-yl]-1H-indazol-5-yl}amino)-5,6,7,8-tetrahydro[1]benzothieno[2,3-d]pyrimidin-7-yl][(3R)-3-methylmorpholin-4-yl]methanone]"
20,23.6,"CN(C)C(=O)[C@H]1CCc2c(sc3ncnc(Nc4cc5cn[nH]c5cc4OCC4CCOCC4)c23)C1 [Example 201, (7S)—N,N-Dimethyl-4-{[6-(tetrahydro-2H-pyran-4-ylmethoxy)-1H-indazol-5-yl]amino}-5,6,7,8-tetrahydro[1]benzothieno[2,3-d]pyrimidine-7-carboxamide]"
21,0.4,"CC(C)Oc1cc2[nH]ncc2cc1Nc1ncnc2sc3c(c12)CC[C@H](C(=O)N1CC2(COC2)C1)C3 [Example 88, 2-Oxa-6-azaspiro[3.3]hept-6-yl[(7S)-4-{[6-(propan-2-yloxy)-1H-indazol-5-yl]amino}-5,6,7,8-tetrahydro[1]benzothieno[2,3-d]pyrimidin-7-yl]methanone]"
22,0.2,"CCOc1cc2[nH]ncc2cc1Nc1ncnc2sc3c(c12)CC[C@H](C(=O)N(C)CC(C)(C)O)C3 [Example 74, (7S)-4-[(6-Ethoxy-1H-indazol-5-yl)amino]-N-(2-hydroxy-2-methylpropyl)-N-methyl-5,6,7,8-tetrahydro[1]benzothieno[2,3-d]pyrimidine-7-carboxamide]"
23,0.4,"COc1cc2[nH]ncc2cc1Nc1ncnc2sc3c(c12)CC[C@H](C(=O)N(C)CCCN(C)C)C3 [Example 54, (7S)—N-[3-(Dimethylamino)propyl]-4-[(6-methoxy-1H-indazol-5-yl)amino]-N-methyl-5,6,7,8-tetrahydro[1]benzothieno[2,3-d]pyrimidine-7-carboxamide]"
24,22.7,"O=C([C@H]1CCc2c(sc3ncnc(Nc4ccc5[nH]ncc5c4)c23)C1)N1CC2(COC2)C1 [Example 12, [(7S)-4-(1H-Indazol-5-ylamino)-5,6,7,8-tetrahydro[1]benzothieno[2,3-d]pyrimidin-7-yl](2-oxa-6-azaspiro[3.3]hept-6-yl)methanone]"
25,6,"CC(C)N(C)C(=O)[C@H]1CCc2c(sc3ncnc(Nc4ccc5[nH]ncc5c4)c23)C1 [Example 7, (7S)-4-(1H-Indazol-5-ylamino)-N-methyl-N-(propan-2-yl)-5,6,7,8-tetrahydro[1]benzothieno[2,3-d]pyrimidine-7-carboxamide]"
26,11.6,"C[C@@H]1CN(C(=O)[C@H]2CCc3c(sc4ncnc(Nc5ccc6[nH]ncc6c5)c34)C2)C[C@H](C)O1 [Example 162, [(2R,6S)-2,6-dimethylmorpholin-4-yl][(7S)-4-(1H-indazol-5-ylamino)-5,6,7,8-tetrahydro[1]benzothieno[2,3-d]pyrimidin-7-yl]methanone]"

# Same assay, conditions: Table 2; ratio of the IC50-value of an R-enantiomer and its corresponding S-enantiomer
row,Activity-Ratio MKNK1,Compound
1,15.0,"CC(C)Oc1cc2[nH]ncc2cc1Nc1ncnc2sc3c(c12)CC[C@H](C(=O)N1CC2(COC2)C1)C3 [Example 88, 2-Oxa-6-azaspiro[3.3]hept-6-yl[(7S)-4-{[6-(propan-2-yloxy)-1H-indazol-5-yl]amino}-5,6,7,8-tetrahydro[1]benzothieno[2,3-d]pyrimidin-7-yl]methanone]"

# Same assay, conditions: Table 3; example numbers of WO2013/174744(A1), not of this patent; pure enantiomer from chiral HPLC, absolute configuration at amide 'R or S'; read-out: MKNK1 IC50
row,IC50 [nM],Compound
1,1.7,"CCOc1cc2[nH]ncc2cc1Nc1ncnc2sc3c(c12)CC[C@H](C(=O)N(C)CCC(F)(F)F)C3 [Example 66, (7S)-4-[(6-Ethoxy-1H-indazol-5-yl)amino]-N-methyl-N-(3,3,3-trifluoropropyl)-5,6,7,8-tetrahydro[1]benzothieno[2,3-d]pyrimidine-7-carboxamide]"

# Same assay, conditions: Table 3; example numbers of WO2013/174744(A1), not of this patent; pure enantiomer from chiral HPLC, absolute configuration at amide 'S or R'; read-out: MKNK1 IC50
row,IC50 [nM],Compound
1,0.9,"CCOc1cc2[nH]ncc2cc1Nc1ncnc2sc3c(c12)CC[C@H](C(=O)N(C)CCC(F)(F)F)C3 [Example 66, (7S)-4-[(6-Ethoxy-1H-indazol-5-yl)amino]-N-methyl-N-(3,3,3-trifluoropropyl)-5,6,7,8-tetrahydro[1]benzothieno[2,3-d]pyrimidine-7-carboxamide]"

# Same assay, conditions: Table 3; example numbers of WO2013/174744(A1); ratio of the IC50 values of the two enantiomers
row,Activity Ratio MKNK1,Compound
1,1.9,"CCOc1cc2[nH]ncc2cc1Nc1ncnc2sc3c(c12)CC[C@H](C(=O)N(C)CCC(F)(F)F)C3 [Example 66, (7S)-4-[(6-Ethoxy-1H-indazol-5-yl)amino]-N-methyl-N-(3,3,3-trifluoropropyl)-5,6,7,8-tetrahydro[1]benzothieno[2,3-d]pyrimidine-7-carboxamide]"
